The PolyMetriX glass transition set

SMILES | glass transition temperature [°C]
*CCCCCCOC(=O)OCCCCCCOC(=O)OCCCCCCOc1ccc(C(=O)c2ccc(O*)cc2)cc1 (repeat unit) | -0.30
*CCCCCCOC(=O)OCCCCCCOC(=O)OCCCCCCn1c(=O)c2cc3c(=O)n(*)c(=O)c3cc2c1=O (repeat unit) | 17.00
*CCCCCCOC(=O)OCCCCOC(=O)OCCCCCCOc1ccc(C(=O)c2ccc(O*)cc2)cc1 (repeat unit) | 2.10
*CCCCCCOC(=O)OCCCOC(=O)OCCCCCCN1C(=O)c2ccc(C(=O)c3ccc4c(c3)C(=O)N(*)C4=O)cc2C1=O (repeat unit) | 61.00
*CCCCCCOC(=O)OCCCOC(=O)OCCCCCCOc1ccc(C(=O)c2ccc(O*)cc2)cc1 (repeat unit) | 16.00
*CCCCCCOC(=O)OCCOC(=O)OCCCCCCOc1ccc(C(=O)c2ccc(O*)cc2)cc1 (repeat unit) | 15.00
*CCCCCCOC(=O)OCCOC(=O)OCCCCCCOc1ccc(Oc2ccc(O*)cc2)cc1 (repeat unit) | -4.00
*CCCCCCOC(=O)c1ccc(-c2ccc(C(=O)O*)cc2)cc1 (repeat unit) | 51.00
*CCCCCCOC(=O)c1ccc2cc(C(=O)O*)ccc2c1 (repeat unit) | 64.00
*CCCCCCOc1ccc(-c2ccc(O*)c3ccccc23)c2ccccc12 (repeat unit) | 109.00
*CCCCCCOc1ccc(/C=C/c2ccc(O*)c3ccccc23)cc1 (repeat unit) | 78.00
*CCCCCCOc1ccc(CCc2ccc(O*)cc2C)cc1 (repeat unit) | 17.90
*CCCCOC(=O)OCCCCCCOC(=O)OCCCCn1c(=O)c2cc3c(=O)n(*)c(=O)c3cc2c1=O (repeat unit) | 37.00
*CCCCOC(=O)c1ccc(N/C=N/c2ccc(C(=O)O*)cc2)cc1 (repeat unit) | 91.00
*CCCCOC(=O)c1ccc2cc(C(=O)O*)ccc2c1 (repeat unit) | 66.00
*CCCOC(=O)C(C)O* (repeat unit) | -33.00
*CCCOC(=O)OCCCCCCOC(=O)OCCCn1c(=O)c2cc3c(=O)n(*)c(=O)c3cc2c1=O (repeat unit) | 36.00
*OC(=O)OCCCCCCOC(=O)OC1COC2C(*)COC12 (repeat unit) | 27.50

SMILES | glass transition temperature [°C]
*OC(=O)c1cccc(C(=O)OC2CC3CC(*)CC(C2)O3)c1 (repeat unit) | 113.00
*OC(F)(F)COC(=O)c1cccc(C(=O)OCC(*)(F)F)c1 (repeat unit) | 28.00
*OC1C(COC(C)=O)OC(*)C(OC(C)=O)C1O (repeat unit) | 202.00
*OC1CCC(OC(=O)OCCCCCCOC(*)=O)CC1 (repeat unit) | 10.00
*Oc1ccc(-c2ccc(Oc3ccc(C(=O)c4ccc(C(=O)c5ccc(*)c(C(F)(F)F)c5)cc4)cc3C(F)(F)F)cc2)cc1 (repeat unit) | 187.00
*Oc1ccc(C(=O)OCCCCCCOC(=O)c2ccc(*)cc2)cc1 (repeat unit) | 15.00
*Oc1ccc(Cc2ccc(OC(=O)OCC3CCC(COC(*)=O)CC3)cc2)cc1 (repeat unit) | 56.90
*Oc1cccc(C(=O)OCC(F)(F)C(F)(F)C(F)(F)COC(=O)c2cccc(*)c2)c1 (repeat unit) | 20.00
*c1ccc(C(=O)OCCCCCCCCCCOc2ccc(/C=C3\CC/C(=C\c4ccc(OCCCCCCCCCCOC(=O)c5ccc(-c6nnc(*)o6)cc5)cc4)C3=O)cc2)cc1 (repeat unit) | 58.00
*c1ccc(C(=O)OCCCCCCCCOc2ccc(/C=C3\CCC/C(=C\c4ccc(OCCCCCCCCOC(=O)c5ccc(-c6nnc(*)o6)cc5)cc4)C3=O)cc2)cc1 (repeat unit) | 59.00
*c1ccc(C(=O)OCCCCCCCCOc2ccc(/C=C3\CCCC/C(=C\c4ccc(OCCCCCCCCOC(=O)c5ccc(-c6nnc(*)o6)cc5)cc4)C3=O)cc2)cc1 (repeat unit) | 98.00
*c1ccc(Oc2ccc(C(=O)c3ccc(Cc4ccc(C(=O)c5ccc(Oc6ccc(-c7nc(-c8ccccc8)[nH]c7*)cc6)cc5)cc4)cc3)cc2)cc1 (repeat unit) | 231.00
*c1ccc(Oc2ccc(C(=O)c3ccc(Oc4ccc(-c5c6c(c(*)c7ccccc57)C(=O)N(c5ccc(F)cc5)C6=O)cc4)cc3)cc2)cc1 (repeat unit) | 290.00
*c1ccc(Oc2ccc(C(=O)c3ccc(Oc4ccc(-c5c6c(c(*)c7ccccc57)C(=O)N(c5ccccc5F)C6=O)cc4)cc3)cc2)cc1 (repeat unit) | 282.00
*c1ccc(Oc2ccc(C(=O)c3ccc(Oc4ccc(-c5cc(*)n(-c6ccccc6)n5)cc4)cc3)cc2)cc1 (repeat unit) | 205.00
*c1ccc(Oc2ccc(C(=O)c3ccc(Oc4ccc(-c5nc(-c6ccc(-c7nc(*)c(-c8ccccc8)[nH]7)cc6)[nH]c5-c5ccccc5)cc4)cc3)cc2)cc1 (repeat unit) | 276.00
*c1ccc(Oc2ccc(C(=O)c3ccc(Oc4ccc(-c5nc(-c6ccccc6)[nH]c5*)cc4)cc3)cc2)cc1 (repeat unit) | 259.00
